# According to patent US12466846B2, “Siloxane derivatives of amino acids having surface-active properties” (AdvanSix Resins & Chemicals LLC, priority 2022, dated 2025):
# Assay: Critical micelle concentration and minimum surface tension from surface tension versus concentration in water, Wilhelmy plate method
# Assay type: physicochemical
# Conditions: for plateau value of minimum surface tension that can be reached: in water, Wilhelmy plate, 23° C.; for interfacial / surfactant activity (in words): judged from the plateau minimum surface tension and CMC in water
# Text: These properties may be measured and described by various methods. One method by which surfactants may be described is by the molecule's critical micelle concentration (CMC). CMC may be defined as the concentration of a surfactant at which micelles form, and above which all additional surfactant is incorporated into micelles.
# As surfactant concentration increases, surface tension decreases. Once the surface is completely overlaid with surfactant molecules, micelles begin to form. This point represents the CMC, as well as the minimum surface tension. Further addition of surfactant will not further affect the surface tension. CMC may therefore be measured by observing the change in surface tension as a function of surfactant concentration. One such method for measuring this value is the Wilhemy plate method. A Wilhelmy plate is usually a thin iridium-platinum plate attached to a balance by a wire and placed perpendicularly to the air-liquid interface. The balance is used to measure the force exerted on the plate by wetting. This value is then used to calculate the surface tension (γ) according to Equation 1: γ=F/l cos θ: Equation 1 wherein I is equal to the wetted perimeter (2w+2d, in which w and d are the plate thickness and width, respectively) and cos θ, the contact angle between the liquid and the plate, is assumed to be […] in the absence of an extant literature value.
# Nuclear magnetic resonance (NMR) spectroscopy was performed on a Bruker 500 MHz spectrometer. The critical micelle concentration (CMC) was determined by the Wilhelmy plate method at 23° C. with a tensiometer (DCAT 11, DataPhysics Instruments GmbH) equipped with a Pt—Ir plate. Dynamic surface tension was determined with a bubble pressure tensiometer (Krüss BP100, Krüss GmbH), at 23° C. Contact angle was determined with the optical contact angle goniometer (OCA 15 Pro, DataPhysics GmbH) equipped with a digital camera.
SMILES,plateau value of minimum surface tension that can be reached,interfacial / surfactant activity (in words)
"COCCOCC[N+](C)(C)CCCCCC(=O)NCCC[Si](O[Si](C)(C)C)(O[Si](C)(C)C)O[Si](C)(C)C [Surfactant 5, 6-((3-(1,1,1,5,5,5-hexamethyl-3-((trimethylsilyl)oxy)trisiloxan-3-yl)propyl)amino)-N-(2-(2-methoxyethoxy)ethyl)-N,N-dimethyl-6-oxohexan-1-aminium bromide]",about 20.40 mN/m,outstanding interfacial activity
"C=CC[N+](C)(C)CCCCCC(=O)NCCC[Si](O[Si](C)(C)C)(O[Si](C)(C)C)O[Si](C)(C)C [Surfactant 3, N-allyl-6-((3-(1,1,1,5,5,5-hexamethyl-3-((trimethylsilyl)oxy)trisiloxan-3-yl)propyl)amino)-N,N-dimethyl-6-oxohexan-1-aminium iodide]",about 20.67 mN/m,outstanding interfacial activity
"C[N+](C)(CCCCCC(=O)NCCC[Si](O[Si](C)(C)C)(O[Si](C)(C)C)O[Si](C)(C)C)CC(=O)O [Surfactant 9b, N-(carboxymethyl)-6-((3-(1,1,1,5,5,5-hexamethyl-3-((trimethylsilyl)oxy)trisiloxan-3-yl)propyl)amino)-N,N-dimethyl-6-oxohexan-1-aminium bromide]",about 29.16 mN/m,excellent activity
"C[N+](C)(CCCCCC(=O)NCCC[Si](O[Si](C)(C)C)(O[Si](C)(C)C)O[Si](C)(C)C)CCC[N+](C)(C)CCCCCC(=O)NCCC[Si](O[Si](C)(C)C)(O[Si](C)(C)C)O[Si](C)(C)C [Surfactant 10, N^1,N^3-bis(6-((3-(1,1,1,5,5,5-hexamethyl-3-((trimethylsilyl)oxy)trisiloxan-3-yl)propyl)amino)-6-oxohexyl)-N^1,N^1,N^3,N^3-tetramethylpropane-1,3-diaminium dibromide]",about 22.12 mN/m,interfacial activity
"C#CC[N+](C)(C)CCCCCC(=O)NCCC[Si](O[Si](C)(C)C)(O[Si](C)(C)C)O[Si](C)(C)C [Surfactant 4, 6-((3-(1,1,1,5,5,5-hexamethyl-3-((trimethylsilyl)oxy)trisiloxan-3-yl)propyl)amino)-N,N-dimethyl-6-oxo-N-(prop-2-yn-1-yl)hexan-1-aminium bromide]",about 20.54 mN/m,outstanding interfacial activity
"CCOC(=O)C[N+](C)(C)CCCCCC(=O)NCCC[Si](O[Si](C)(C)C)(O[Si](C)(C)C)O[Si](C)(C)C [Surfactant 2, N-(2-ethoxy-2-oxoethyl)-6-((3-(1,1,1,5,5,5-hexamethyl-3-((trimethylsilyl)oxy)trisiloxan-3-yl)propyl)amino)-N,N-dimethyl-6-oxohexan-1-aminium bromide]",around 20.36 mN/m,outstanding interfacial activity
"CCOP(=O)(CCC[N+](C)(C)CCCCCC(=O)NCCC[Si](O[Si](C)(C)C)(O[Si](C)(C)C)O[Si](C)(C)C)OCC [Surfactant 6, N-(3-(diethoxyphosphoryl)propyl)-6-((3-(1,1,1,5,5,5-hexamethyl-3-((trimethylsilyl)oxy)trisiloxan-3-yl)propyl)amino)-N,N-dimethyl-6-oxohexan-1-aminium bromide]",about 20.48 mN/m,outstanding interfacial activity
"C[N+](C)(CCCCCC(=O)NCCC[Si](O[Si](C)(C)C)(O[Si](C)(C)C)O[Si](C)(C)C)Cc1ccccc1 [Surfactant 1, N-benzyl-6-((3-(1,1,1,5,5,5-hexamethyl-3-((trimethylsilyl)oxy)trisiloxan-3-yl)propyl)amino)-N,N-dimethyl-6-oxohexan-1-aminium bromide]",around 20.67 mN/m,outstanding interfacial activity
"C[N+](C)(CCCCCC(=O)O)CCCCCC(=O)NCCC[Si](O[Si](C)(C)C)(O[Si](C)(C)C)O[Si](C)(C)C [Surfactant 9a, N-(5-carboxypentyl)-6-((3-(1,1,1,5,5,5-hexamethyl-3-((trimethylsilyl)oxy)trisiloxan-3-yl)propyl)amino)-N,N-dimethyl-6-oxohexan-1-aminium bromide]",about 20.52 mN/m,
"C[N+](C)(CCO)CCCCCC(=O)NCCC[Si](O[Si](C)(C)C)(O[Si](C)(C)C)O[Si](C)(C)C [Surfactant 8, 6-((3-(1,1,1,5,5,5-hexamethyl-3-((trimethylsilyl)oxy)trisiloxan-3-yl)propyl)amino)-N-(2-hydroxyethyl)-N,N-dimethyl-6-oxohexan-1-aminium iodide]",about 20.41 mN/m,outstanding interfacial activity
"C[N+](C)(CCCO)CCCCCC(=O)NCCC[Si](O[Si](C)(C)C)(O[Si](C)(C)C)O[Si](C)(C)C [Surfactant 7, 6-((3-(1,1,1,5,5,5-hexamethyl-3-((trimethylsilyl)oxy)trisiloxan-3-yl)propyl)amino)-N-(3-hydroxypropyl)-N,N-dimethyl-6-oxohexan-1-aminium iodide]",about 20.61 mN/m,outstanding interfacial activity
